Assay results as given in patent US12630548B2, “Azetidine derivatives for the treatment of integrin associated diseases” (The University of Nottingham, priority 2020, dated 2026).
Where two headings read alike, the source gives them in different places.

How the values were obtained:
ανβ6 = ανβ6 (Homo sapiens, UniProt P06756+P18564); assay: Cell adhesion assay, αvβ6 integrin; type: cell-based
Protocol: The assays were performed as described in the literature (P. A. Procopiou, N. A. Anderson, J. Barrett, T. N. Barrett, M. H. J. Crawford, B. J. Fallon, A. P. Hancock, J. Le, S. Lemma, R. P. Marshall, J. Morrell, J. M. Pritchard, J. E. Rowedder, P. Saklatvala, R. J. Slack, S. L. Sollis, C. J. Suckling, L. R. Thorp, G. Vitulli, et al., J. Med. Chem. 2018, 61, 8417-8443; S. B. Ludbrook, S. T. Barry, C. J. Delves, C. M. T. Horgan, Biochem. J. 2003, 369, 311-318).

[1] = ChromlogD (lipophilicity); type: physicochemical; conditions: pH 7.4
Excerpt: ChromlogD is a measure of lipophilicity of a compound (R. J. Young et al. Drug Discovery Today 2011, […]). Lipophilicity is a key physicochemical property that plays a crucial role in determining ADMET (absorption, distribution, metabolism, excretion, and toxicity) properties and the overall suitability of drug candidates.

hERG = hERG (Homo sapiens, UniProt Q12809); assay: hERG Q-patch; type: cell-based; conditions: read-out: hERG Q-patch (pIC50) (converted)
Excerpt: The human ether-a-go-go related gene (hERG) encodes the inward rectifying voltage gated potassium channel in the heart (IKr) that is involved in cardiac repolarisation. Inhibition of the hERG current causes QT interval prolongation resulting in potentially fatal ventricular tachyarrhythmia called Torsade de Pointes. A number of drugs have been withdrawn from late stage clinical trials due to these cardiotoxic effects, therefore it is important to identify inhibitors early in drug discovery (W. Haverkamp et al. Eur Heart J., 2000, 21(15), 1216). A low potency in this screen is advantageous for compound development.

[2] = cell adhesion data, read-out: ανβ6 IC50

ανβ6, sequence (P06756 31-889 limits assumed): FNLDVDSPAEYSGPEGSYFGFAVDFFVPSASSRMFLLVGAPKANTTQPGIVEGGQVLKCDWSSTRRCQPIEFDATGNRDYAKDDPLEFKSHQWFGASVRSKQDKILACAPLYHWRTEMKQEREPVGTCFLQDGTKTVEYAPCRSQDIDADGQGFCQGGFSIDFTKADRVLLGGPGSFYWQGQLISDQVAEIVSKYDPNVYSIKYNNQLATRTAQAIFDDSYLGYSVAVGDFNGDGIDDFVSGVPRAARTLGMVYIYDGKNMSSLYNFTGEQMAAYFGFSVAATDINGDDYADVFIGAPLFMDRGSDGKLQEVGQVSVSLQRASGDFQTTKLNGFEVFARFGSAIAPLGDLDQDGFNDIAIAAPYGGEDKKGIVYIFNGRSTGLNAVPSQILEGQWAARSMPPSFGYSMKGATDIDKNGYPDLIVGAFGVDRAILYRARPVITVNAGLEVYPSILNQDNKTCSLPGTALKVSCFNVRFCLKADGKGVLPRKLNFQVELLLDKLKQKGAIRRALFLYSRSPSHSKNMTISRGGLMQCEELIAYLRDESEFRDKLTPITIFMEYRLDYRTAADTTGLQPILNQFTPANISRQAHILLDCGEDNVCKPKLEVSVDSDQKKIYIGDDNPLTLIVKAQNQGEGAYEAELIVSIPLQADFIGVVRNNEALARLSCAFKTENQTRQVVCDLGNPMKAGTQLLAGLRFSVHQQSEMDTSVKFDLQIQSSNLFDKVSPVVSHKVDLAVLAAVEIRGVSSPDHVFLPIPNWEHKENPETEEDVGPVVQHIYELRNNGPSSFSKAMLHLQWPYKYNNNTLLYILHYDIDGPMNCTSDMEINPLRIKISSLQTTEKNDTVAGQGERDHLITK
ανβ6, sequence (P06756 891-1048 limits assumed): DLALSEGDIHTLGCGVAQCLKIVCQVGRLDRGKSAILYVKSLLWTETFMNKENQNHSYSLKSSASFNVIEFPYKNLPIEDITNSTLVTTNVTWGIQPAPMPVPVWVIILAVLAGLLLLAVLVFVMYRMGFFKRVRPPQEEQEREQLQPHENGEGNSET
ανβ6, sequence (P18564 22-788): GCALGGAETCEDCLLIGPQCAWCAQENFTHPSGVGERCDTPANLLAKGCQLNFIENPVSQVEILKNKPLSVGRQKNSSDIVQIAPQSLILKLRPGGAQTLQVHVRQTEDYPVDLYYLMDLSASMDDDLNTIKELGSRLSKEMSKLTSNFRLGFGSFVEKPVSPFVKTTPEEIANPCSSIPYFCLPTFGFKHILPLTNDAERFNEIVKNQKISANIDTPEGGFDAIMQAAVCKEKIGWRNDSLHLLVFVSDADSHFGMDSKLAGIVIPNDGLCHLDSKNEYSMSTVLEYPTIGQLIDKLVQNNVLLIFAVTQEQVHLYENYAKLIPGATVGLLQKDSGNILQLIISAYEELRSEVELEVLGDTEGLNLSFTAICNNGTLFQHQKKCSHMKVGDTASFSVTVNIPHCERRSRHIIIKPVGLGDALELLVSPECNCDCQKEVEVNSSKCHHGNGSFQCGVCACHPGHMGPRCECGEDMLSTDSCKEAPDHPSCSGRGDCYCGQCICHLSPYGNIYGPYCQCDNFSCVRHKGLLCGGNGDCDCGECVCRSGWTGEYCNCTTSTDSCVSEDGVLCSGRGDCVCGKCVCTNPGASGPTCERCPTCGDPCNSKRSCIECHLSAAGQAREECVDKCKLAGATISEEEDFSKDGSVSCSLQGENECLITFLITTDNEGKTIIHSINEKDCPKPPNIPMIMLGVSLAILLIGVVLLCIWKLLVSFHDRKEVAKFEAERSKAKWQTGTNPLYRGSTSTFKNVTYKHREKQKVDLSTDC
hERG, sequence (Q12809 whole entry): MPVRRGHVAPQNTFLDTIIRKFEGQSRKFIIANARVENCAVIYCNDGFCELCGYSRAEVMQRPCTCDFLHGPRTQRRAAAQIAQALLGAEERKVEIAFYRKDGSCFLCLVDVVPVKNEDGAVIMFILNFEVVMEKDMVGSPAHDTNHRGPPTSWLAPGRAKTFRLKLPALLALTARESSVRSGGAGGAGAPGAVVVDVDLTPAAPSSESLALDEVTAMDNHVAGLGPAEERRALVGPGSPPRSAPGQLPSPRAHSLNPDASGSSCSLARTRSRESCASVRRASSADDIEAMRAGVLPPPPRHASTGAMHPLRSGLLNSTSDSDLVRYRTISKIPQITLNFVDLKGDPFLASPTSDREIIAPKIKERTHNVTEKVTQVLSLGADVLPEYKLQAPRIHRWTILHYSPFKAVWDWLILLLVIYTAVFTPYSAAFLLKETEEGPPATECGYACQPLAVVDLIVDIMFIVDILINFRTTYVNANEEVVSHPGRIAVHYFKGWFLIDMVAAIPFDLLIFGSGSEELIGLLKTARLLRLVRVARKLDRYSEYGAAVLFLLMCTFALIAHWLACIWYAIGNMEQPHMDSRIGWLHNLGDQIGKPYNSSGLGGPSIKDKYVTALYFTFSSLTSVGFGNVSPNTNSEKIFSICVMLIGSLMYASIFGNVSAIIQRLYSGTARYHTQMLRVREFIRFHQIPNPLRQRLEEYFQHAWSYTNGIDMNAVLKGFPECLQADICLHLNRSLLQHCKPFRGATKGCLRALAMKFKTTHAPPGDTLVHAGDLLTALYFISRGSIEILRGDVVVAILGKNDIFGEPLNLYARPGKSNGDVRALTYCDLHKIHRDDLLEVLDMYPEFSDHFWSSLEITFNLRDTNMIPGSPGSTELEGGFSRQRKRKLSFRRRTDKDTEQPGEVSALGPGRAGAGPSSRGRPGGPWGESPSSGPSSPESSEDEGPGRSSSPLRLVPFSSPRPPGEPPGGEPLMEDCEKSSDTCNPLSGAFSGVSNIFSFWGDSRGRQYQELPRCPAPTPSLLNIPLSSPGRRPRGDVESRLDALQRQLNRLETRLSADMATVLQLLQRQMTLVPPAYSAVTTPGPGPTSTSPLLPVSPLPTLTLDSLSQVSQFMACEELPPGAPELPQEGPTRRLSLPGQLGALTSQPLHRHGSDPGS

Row | IC50 (ανβ6; [2]) | Structure (SMILES) | also measured
1 | < 0.25 µM | Cc1cccc(S(=O)(=O)N2CC(C(=O)N[C@@H](CNC(=O)CCCCc3ccc4c(n3)NCCC4)C(=O)O)C2)c1 [Example 6A] | IC50 (ανβ6; comparison table, Example 6A, read-out: αvβ6 (pIC50) (converted)): 0.00501 µM; chromatographic logD [1]: 2.27; IC50 (hERG): > 31.6 µM
2 | < 0.25 µM | O=C(CCCCc1ccc2c(n1)NCCC2)NC[C@H](NC(=O)C1CN(S(=O)(=O)c2cccc(C(F)F)c2)C1)C(=O)O [Example 29, (S)-2-(1-(3-(Difluoromethyl)benzenesulfonyl)azetidine-3-carboxamido)-3-(5-(5,6,7,8-tetrahydro-1,8-naphthyridin-2-yl)pentanamido)propanoic acid] | 
3 | < 0.25 µM | O=C(CCCCc1ccc2c(n1)NCCC2)NC[C@H](NC(=O)C1CN(S(=O)(=O)c2cccc(C3CC3)c2)C1)C(=O)O [Example 30, (S)-2-(1-(3-Cyclopropylbenzenesulfonyl)azetidine-3-carboxamido)-3-(5-(5,6,7,8-tetrahydro-1,8-naphthyridin-2-yl)pentanamido)propanoic acid] | 
4 | < 0.25 µM | O=C(CCCCc1ccc2c(n1)NCCC2)NC[C@H](NC(=O)C1CN(S(=O)(=O)c2ccc3c(c2)CCC3)C1)C(=O)O [Example 31, (S)-2-(1-((2,3-Dihydro-1H-inden-5-yl)sulfonyl)azetidine-3-carboxamido)-3-(5-(5,6,7,8-tetrahydro-1,8-naphthyridin-2-yl)pentanamido)propanoic acid] | 
5 | < 0.25 µM | COc1ccc(S(=O)(=O)N2CC(C(=O)N[C@@H](CNC(=O)CCCCc3ccc4c(n3)NCCC4)C(=O)O)C2)cc1OC [Example 32, (S)-2-(1-(3,4-Dimethoxybenzenesulfonyl)azetidine-3-carboxamido)-3-(5-(5,6,7,8-tetrahydro-1,8-naphthyridin-2-yl)pentanamido)propanoic acid] | 
6 | < 0.25 µM | O=C(CCCCc1ccc2c(n1)NCCC2)NC[C@H](NC(=O)C1CN(S(=O)(=O)c2cccc(C3=CCOCC3)c2)C1)C(=O)O [Example 33] | 
7 | < 0.25 µM | O=C(CCCCc1ccc2c(n1)NCCC2)NC[C@H](NC(=O)C1CN(S(=O)(=O)c2cccc(N3CCNCC3)c2)C1)C(=O)O [Example 34, (S)-2-(1-(3-(Piperazin-1-yl)benzenesulfonyl)azetidine-3-carboxamido)-3-(5-(5,6,7,8-tetrahydro-1,8-naphthyridin-2-yl)pentanamido)propanoic acid] | 
8 | < 0.25 µM | CN(C)CCOc1cccc(S(=O)(=O)N2CC(C(=O)N[C@@H](CNC(=O)CCCCc3ccc4c(n3)NCCC4)C(=O)O)C2)c1 [Example 35] | 
9 | < 0.25 µM | Cc1cccc(S(=O)(=O)N2CC(C(=O)N[C@@H](CC(=O)NCCCCc3ccc4c(n3)NCCC4)C(=O)O)C2)c1 [Example 36, N4-(4-(5,6,7,8-Tetrahydro-1,8-naphthyridin-2-yl)butyl)-N2-(1-(3-methylbenzenesulfonyl)azetidine-3-carbonyl)-L-asparagine] | 
10 | < 0.25 µM | Cc1cccc(S(=O)(=O)N2CC(C(=O)N[C@@H](CCN(C)CCCCc3ccc4c(n3)NCCC4)C(=O)O)C2)c1 [Example 37, (S)-4-(Methyl(4-(5,6,7,8-tetrahydro-1,8-naphthyridin-2-yl)butyl)amino)-2-(1-(3-methylbenzenesulfonyl)azetidine-3-carboxamido)butanoic acid] | 
11 | < 0.25 µM | CN(CCCCc1ccc2c(n1)NCCC2)CC[C@H](NC(=O)C1CN(S(=O)(=O)c2ccccc2)C1)C(=O)O [Example 38, (S)-4-(Methyl(4-(5,6,7,8-tetrahydro-1,8-naphthyridin-2-yl)butyl)amino)-2-(1-(phenylsulfonyl)azetidine-3-carboxamido)butanoic acid] | 
12 | < 0.25 µM | CN(CCCCc1ccc2c(n1)NCCC2)CC[C@H](NC(=O)C1CN(S(=O)(=O)c2cccc(Cl)c2)C1)C(=O)O [Example 39, (S)-2-(1-((3-chlorophenyl)sulfonyl)azetidine-3-carboxamido)-4-(methyl(4-(5,6,7,8-tetrahydro-1,8-naphthyridin-2-yl)butyl)amino)butanoic acid] | 
13 | < 0.25 µM | Cc1ccc(S(=O)(=O)N2CC(C(=O)N[C@@H](CCN(C)CCCCc3ccc4c(n3)NCCC4)C(=O)O)C2)cc1 [Example 40, (S)-4-(Methyl(4-(5,6,7,8-tetrahydro-1,8-naphthyridin-2-yl)butyl)amino)-2-(4-methylbenzenesulfonylazetidine-3-carboxamido)butanoic acid] | 
